Active and inactive are the calls of the source. No cut-off for these calls is given here.
Key:
Thoracic aorta [1] = experiment: Vasorelaxant activity in rat thoracic aorta; format: functional, tissue-based
Mesenteric artery [2] = experiment: Vasorelaxant activity in mesentric artery rings isolated from Sprague-Dawley rat assessed as inhibition of phenylephrine-induced contraction in presence of eNOS inhibitor L-NAME; format: functional, tissue-based
Mesenteric artery [3] = experiment: Vasorelaxant activity in Sprague-Dawley rat endothelium intact mesentric artery rings assessed as inhibition of phenylephrine-induced contraction in presence of non-selective calcium-activated K+ channel blocker TEA/VGCC blocker nifedipine; format: functional, tissue-based
Thoracic aorta [4] = experiment: Potency index, ratio of rhynchophylline IC50 to compound IC50 for vasorelaxant activity in rat thoracic aorta; format: functional
Mesenteric artery [5] = experiment: Vasorelaxant activity in endothelium intact mesentric artery rings isolated from streptozotocin-induced type-1 diabetic Sprague-Dawley rat model assessed as inhibition of phenylephrine-induced contraction in presence of eNOS inhibitor L-NAME; format: functional, tissue-based
Mesenteric artery [6] = experiment: Vasorelaxant activity in Sprague-Dawley rat endothelium denuded mesentric artery rings assessed as inhibition of phenylephrine-induced contraction; format: functional, tissue-based
Mesenteric artery [7] = experiment: Vasorelaxant activity in Sprague-Dawley rat endothelium intact mesentric artery rings assessed as inhibition of phenylephrine-induced contraction; format: functional, tissue-based
Mesenteric artery [8] = experiment: Vasorelaxant activity in Sprague-Dawley rat endothelium denuded mesentric artery rings assessed as inhibition of KCl-induced contraction; format: functional, tissue-based
Mesenteric artery [9] = experiment: Vasorelaxant activity in Sprague-Dawley rat endothelium intact mesentric artery rings assessed as inhibition of KCl-induced contraction; format: functional, tissue-based
Mesenteric artery [10] = experiment: Vasorelaxant activity in endothelium intact mesentric artery rings isolated from streptozotocin-induced type-1 diabetic Sprague-Dawley rat model assessed as inhibition of phenylephrine-induced contraction; format: functional, tissue-based
Rattus norvegicus [11] = experiment: (§1) In vivo vasorelaxant activity in streptozotocin-induced type-1 diabetic Sprague-Dawley rat model assessed as protection against eNOS loss in vessels at 20 mg/kg, po via gavage for 1 week starting from 8 week post diabetic induction by hematoxylin and eosin staining based assay; format: functional, organism-based
Rattus norvegicus [12] = experiment: In vivo vasorelaxant activity in streptozotocin-induced type-1 diabetic Sprague-Dawley rat model assessed as inhibition of phenylephrine-induced contraction in mesentric artery rings at 20 mg/kg, po via gavage for 1 week starting from 8 week post diabetic induction; format: functional, organism-based
Rattus norvegicus [13] = experiment: as §1, with “vessels by measuring increase in eNOS protein expression” for “vessels”, “Western blot method” for “hematoxylin and eosin staining based assay”; format: functional, organism-based
Rattus norvegicus [14] = experiment: In vivo vasorelaxant activity in streptozotocin-induced type-1 diabetic Sprague-Dawley rat model assessed as increase in acetylcholine-induced endothelium dependent relaxation in mesentric artery rings at 20 mg/kg, po via gavage for 1 week starting from 8 week post diabetic induction; format: functional, organism-based

| SMILES | IC50 (Thoracic aorta [1]) [µM] | inhibition (Mesenteric artery [2]) | inhibition (Mesenteric artery [3]) | Ratio IC50 (Thoracic aorta [4]) | inhibition (Mesenteric artery [5]) | Emax (Mesenteric artery [6]) [%] | IC50 (Mesenteric artery [6]) [µM] | Emax (Mesenteric artery [7]) [%] | IC50 (Mesenteric artery [7]) [µM] | inhibition (Mesenteric artery [7]) | inhibition (Mesenteric artery [8]) | inhibition (Mesenteric artery [9]) | inhibition (Mesenteric artery [10]) | Activity (Rattus norvegicus [11]) | inhibition (Rattus norvegicus [12]) | Activity (Rattus norvegicus [13]) | Activity (Rattus norvegicus [14]) |
| --- | --- | --- | --- | --- | --- | --- | --- | --- | --- | --- | --- | --- | --- | --- | --- | --- | --- |
| CC[C@H]1CN2CC[C@]3(C(=O)Nc4ccccc43)[C@@H]2C[C@@H]1/C(=C/OC)C(=O)OC | 174 | – | – | – | – | – | – | – | – | – | – | – | – | – | – | – | – |
| COC(=O)C[C@@H]1C[C@H]2c3[nH]c4ccccc4c3CCN2C[C@@H]1CCO | 3.69 | inactive | Active | <=30 | inactive | 86.3 | 49.9 | 99.1 | 7.79 | Dose-dependent effect | inactive | inactive | – | – | – | – | – |
| COC(=O)C[C@H]1C[C@@H]2c3[nH]c4ccccc4c3CCN2C[C@H]1CCO | 0.199 | inactive | inactive | <=30 | inactive | 101 | 5.15 | 100 | 0.092 | Dose-dependent effect | inactive | inactive | Active | – | – | – | – |
| COC(=O)CC1CC2c3[nH]c4ccccc4c3CCN2CC1CCO (racemic) | 5.89 | inactive | Active | <=30 | inactive | 99.7 | 1.2 | 99.9 | 0.499 | Dose-dependent effect | inactive | inactive | Active | Active | Active | Active | Active |
